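48-hour exposure; five concentrations; linearly interpolated endpoints. At the GI50, growth is halved.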 Activity calls are given as the source filed them. Cut-off read from the data, not from the text of the source: active = GI50 up to about 1.1 µM and inactive = higher.

Among the test systems are BT-549; CAKI-1; DU-145; HCC 2998; HCT-116; HOP-62; MDA-MB-231; MDA-N; Malme-3M; NCI-H23; RPMI-8226; RXF 393; SF-268; SF-295; SK-MEL-28; SK-MEL-5; SR; SW-620; UACC-62; HL-60.
Holding throughout (assay): NCI tumour cell line growth inhibition, 48 h

In the case of `CC1(C)OC(=C(C#N)C#N)C(C#N)=C1/C=C/c1ccncc1`, the GI50 with BT-549 is 1.65 µM (inactive); with CAKI-1, 1.97 µM (inactive); in the assay with DU-145, 2.53 µM (inactive); in the assay on HCC 2998 it was 4.9 µM (inactive); in the assay on HCT-116, 1.91 µM (inactive); with HOP-62, 1.66 µM (inactive). Moreover, the GI50 was 2.16 µM (inactive) in the assay with MDA-MB-231; 2.58 µM (inactive) in the assay on MDA-N; 2.61 µM (inactive) in the assay with Malme-3M; 2.35 µM (inactive) in the assay with NCI-H23; 1.65 µM (inactive) in the assay on RPMI-8226; 2.29 µM (inactive) with RXF 393. Moreover, the GI50 is 2.21 µM (inactive) in the assay on SF-268; 2.24 µM (inactive) with SF-295; 2.39 µM (inactive) in the assay on SK-MEL-28; 4.37 µM (inactive) in the assay on SK-MEL-5; 2.41 µM (inactive) with SR; 2.27 µM (inactive) in the assay on SW-620. The GI50 in the assay with UACC-62 is 1.95 µM (inactive).
`COc1ccc(/C=C2\CCS(=O)(=O)c3ccccc3C2=O)cc1OC`: the GI50 with BT-549 is 16.6 µM (inactive); with CAKI-1, 58.6 µM (inactive); in the assay with DU-145, 23.6 µM (inactive); with HCC 2998, 14.9 µM (inactive); with HCT-116, 28.1 µM (inactive); in the assay on HL-60, 17.4 µM (inactive). The GI50 in the assay on HOP-62 is 38.5 µM (inactive); in the assay with MDA-MB-231 it was 30.8 µM (inactive); with MDA-N, 45.4 µM (inactive); in the assay on NCI-H23, 28.8 µM (inactive); with RPMI-8226 it was 35.2 µM (inactive); with RXF 393 it was 54.8 µM (inactive). Also, the GI50 in the assay with SF-268 was 29.3 µM (inactive); with SF-295, 43.6 µM (inactive); in the assay with SK-MEL-28, 53.1 µM (inactive); in the assay on SR it was 43.5 µM (inactive); with SW-620, 38 µM (inactive); with UACC-62, 16.7 µM (inactive).
On to `COc1cc(C(=O)n2c3ccc(Br)cc3c3nc4ccccc4nc32)cc(OC)c1OC`, for which the GI50 in the assay on BT-549 was 37.3 µM (inactive); in the assay on CAKI-1, > 100 µM (inactive); in the assay with DU-145 it was > 100 µM (inactive); with HCC 2998, > 100 µM (inactive); in the assay with HCT-116, > 100 µM (inactive); with HL-60, > 100 µM (inactive). The GI50 in the assay on HOP-62 is > 100 µM (inactive); in the assay on MDA-MB-231 it was 72.8 µM (inactive); with MDA-N, > 100 µM (inactive); in the assay on Malme-3M, > 100 µM (inactive); with NCI-H23, > 100 µM (inactive); with RPMI-8226, > 100 µM (inactive). The GI50 with RXF 393 was 19.7 µM (inactive); with SF-268, 60.5 µM (inactive); with SF-295, 64 µM (inactive); in the assay with SK-MEL-28 it was > 100 µM (inactive); with SK-MEL-5 it was > 100 µM (inactive); in the assay on SR, > 100 µM (inactive). The GI50 is > 100 µM (inactive) in the assay on SW-620 and 42.6 µM (inactive) with UACC-62.
For the compound `CCCCCCCCCCCC[C@@H](O)[C@H]1CCC([C@H](O)CCCCC(=O)CCCCCCCC2=C[C@H](C)OC2=O)O1` (some centres undefined), the GI50 with BT-549 was 9.06 µM (inactive); in the assay on CAKI-1, > 36.4 µM (inactive); with DU-145 it was > 50 µM (inactive); in the assay with HCC 2998, > 50 µM (inactive); with HCT-116, 3.01 µM (inactive); in the assay on HL-60, 0.991 µM (active). Also, the GI50 with MDA-MB-231 was > 41.7 µM (inactive); in the assay with MDA-N it was > 35.2 µM (inactive); with Malme-3M, > 50 µM (inactive); in the assay with NCI-H23, 0.0957 µM (active); with RPMI-8226, 2.5 µM (inactive); in the assay with RXF 393 it was 11.6 µM (inactive). In addition, the GI50 was 18.1 µM (inactive) with SF-268; 20.1 µM (inactive) in the assay on SF-295; 19.2 µM (inactive) in the assay on SK-MEL-28; 0.0315 µM (active) in the assay with SK-MEL-5; 0.0773 µM (active) in the assay on SR; > 29.1 µM (inactive) with SW-620. For the same compound, in the assay on UACC-62, the GI50 was 17.4 µM (inactive).
Regarding `CCOc1cc(CC[N+](C)(C)C)c2c(ccc3ccc(OC)c(OC)c32)c1OC`, the GI50 in the assay with BT-549 is 19.4 µM (inactive); in the assay with CAKI-1, > 100 µM (inactive); with DU-145, > 100 µM (inactive); in the assay with HCC 2998, > 100 µM (inactive); with HCT-116, > 100 µM (inactive); with MDA-MB-231, > 100 µM (inactive). The GI50 was > 100 µM (inactive) in the assay on MDA-N; > 100 µM (inactive) in the assay with Malme-3M; > 10 µM (inactive) in the assay on NCI-H23; 16.8 µM (inactive) in the assay with RPMI-8226; > 10 µM (inactive) in the assay with RXF 393; > 100 µM (inactive) in the assay on SF-268. The GI50 in the assay with SF-295 was > 100 µM (inactive); in the assay on SK-MEL-28 it was > 100 µM (inactive); with SK-MEL-5, 63 µM (inactive); with SR it was > 100 µM (inactive); in the assay with SW-620 it was > 100 µM (inactive); with UACC-62, > 100 µM (inactive).
Consider `COP1(=S)OCC2CCC[C@@H]2O1` (some centres undefined), for which the GI50 with BT-549, in the assay with CAKI-1, in the assay on DU-145, with HCC 2998, in the assay on HCT-116 and in the assay with HL-60 was > 100 µM (inactive) throughout. Moreover, the GI50 in the assay with MDA-MB-231, in the assay on MDA-N, with Malme-3M, with NCI-H23, with RPMI-8226 and with RXF 393 was > 100 µM (inactive) in each case. Besides, the GI50 in the assay on SF-268, in the assay on SF-295, with SK-MEL-28, in the assay on SK-MEL-5, with SR and in the assay on SW-620 was > 100 µM (inactive) throughout. Further, the GI50 in the assay on UACC-62 is > 100 µM (inactive).
In the case of `NCCSCCC(=O)O`, the GI50 is > 100 µM (inactive) with BT-549; > 59.2 µM (inactive) in the assay on CAKI-1; > 52 µM (inactive) with DU-145; 28.6 µM (inactive) in the assay with HCC 2998; > 56.6 µM (inactive) in the assay on HCT-116; > 68.5 µM (inactive) in the assay on HOP-62. Besides, the GI50 in the assay on MDA-MB-231 was > 100 µM (inactive); with MDA-N it was > 81.7 µM (inactive); in the assay with Malme-3M, > 100 µM (inactive); with NCI-H23 it was > 25.8 µM (inactive); in the assay with RPMI-8226, 25.8 µM (inactive); with RXF 393, > 66.7 µM (inactive). The GI50 in the assay with SF-268 is > 77.3 µM (inactive); in the assay on SF-295, > 48.4 µM (inactive); in the assay with SK-MEL-28, 37.9 µM (inactive); in the assay with SK-MEL-5, 39.9 µM (inactive); in the assay with SR, 14.4 µM (inactive); in the assay with SW-620, 19.7 µM (inactive). The GI50 with UACC-62 is > 45.4 µM (inactive).
`C=C(C)C12OC3(c4ccccc4)OC1C1C4OC4(CO)C(O)C4(O)C(=O)C(C)=CC4C1(O3)C(C)C2OC(=O)/C=C/C=C/c1ccccc1` (centres undefined): the GI50 was 0.203 µM (active) in the assay with BT-549; 0.504 µM (active) in the assay on CAKI-1; 0.215 µM (active) in the assay with DU-145; < 0.0005 µM (active) with HCC 2998; 0.228 µM (active) in the assay with HCT-116; < 0.0005 µM (active) with HL-60. The GI50 in the assay on HOP-62 is 0.551 µM (active); in the assay with MDA-MB-231 it was < 0.0005 µM (active); in the assay on MDA-N, < 0.0005 µM (active); in the assay on Malme-3M, 0.474 µM (active); with NCI-H23, 0.312 µM (active); with RPMI-8226, 0.107 µM (active). Moreover, the GI50 with RXF 393 is 0.207 µM (active); in the assay on SF-268 it was 0.247 µM (active); in the assay on SF-295, < 0.0005 µM (active); in the assay with SK-MEL-28 it was 0.33 µM (active); with SK-MEL-5, 0.0716 µM (active); in the assay on SR, 0.122 µM (active). In addition, the GI50 in the assay with UACC-62 is 0.253 µM (active).
`CC(=O)c1ccc(Nc2c3c(nc4ccccc24)CCCC3)cc1`: the GI50 in the assay on BT-549 was 9.79 µM (inactive); in the assay on CAKI-1, 16.4 µM (inactive); in the assay on DU-145, 20 µM (inactive); in the assay on HCC 2998, 42.1 µM (inactive); in the assay on HCT-116, 13.2 µM (inactive); in the assay on HL-60 it was 2.73 µM (inactive). Further, the GI50 is 10.3 µM (inactive) with HOP-62; 19.6 µM (inactive) with MDA-MB-231; 2.72 µM (inactive) in the assay on MDA-N; 11.3 µM (inactive) in the assay with NCI-H23; 27.6 µM (inactive) in the assay on RPMI-8226; 20.5 µM (inactive) with RXF 393. Besides, the GI50 in the assay with SF-268 was 40.2 µM (inactive); with SF-295 it was 11.2 µM (inactive); with SK-MEL-28, 50.7 µM (inactive); with SK-MEL-5, 14.9 µM (inactive); with SR, 2.47 µM (inactive); in the assay with SW-620, 16.9 µM (inactive). In addition, the GI50 with UACC-62 was 17.1 µM (inactive).
Regarding `COc1cc([C@@H]2C3C(=O)c4ccccc4C3[C@@H](c3cc(OC)c(OC)c(OC)c3)C23Cc2ccccc2C3=O)cc(OC)c1OC` (some centres undefined), the GI50 was > 100 µM (inactive) in the assay on BT-549; 2.75 µM (inactive) in the assay on CAKI-1; > 100 µM (inactive) with DU-145; > 100 µM (inactive) in the assay with HCC 2998; > 100 µM (inactive) with HCT-116; > 100 µM (inactive) in the assay with HL-60. The GI50 in the assay with HOP-62 was > 100 µM (inactive); in the assay on MDA-MB-231 it was > 100 µM (inactive); in the assay with MDA-N it was > 100 µM (inactive); with Malme-3M, > 100 µM (inactive); with NCI-H23, > 100 µM (inactive); in the assay with RPMI-8226 it was 37.8 µM (inactive). Further, the GI50 with RXF 393, in the assay on SF-268, in the assay on SF-295, in the assay on SK-MEL-28, with SK-MEL-5 and in the assay on SR was > 100 µM (inactive) throughout. In addition, the GI50 in the assay on SW-620 was > 100 µM (inactive).

Values taken from ChEMBL document CHEMBL1201862, “PubChem BioAssay data set” (2004).
